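Exposure lasted 48 hours, with cells grown in 96-well plates and compounds tested at five concentrations. Abbreviation: GI50, concentration required for 50% inhibition of growth. TGI: total growth inhibition.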

These results are taken from PubChem BioAssay (NCI).

Test systems include EKVX NSCLC; MDA-MB-231 breast; COLO 205 colon; UO-31 renal; SR leukemia; SNB-19 CNS; LOX IMVI melanoma; KM12 colon; SF-268 CNS; MDA-MB-435.
What all share (assay): DTP human tumour cell line panel, 48 h

What is called GI50 is the concentration giving 50% growth inhibition. The term TGI denotes the concentration at which net growth stops. Low values mean more potent growth arrest, high ones less potent growth arrest. `COc1ccc(/C(C)=C(\c2ccc(Cl)cc2)c2ccc(OCCN3CCCCC3)cc2)cc1F`: the GI50 with EKVX NSCLC was 4.78 µM; in the test with MDA-MB-231 breast it was 3.04 µM; in the test with COLO 205 colon it was 1.75 µM; with UO-31 renal it was 2.05 µM; with SR leukemia it was 1.8 µM; with SNB-19 CNS, 5.37 µM. The GI50 in the test with LOX IMVI melanoma is 2.42 µM; with KM12 colon, 1.97 µM; in the test on SF-268 CNS it was 5.96 µM; in the test with MDA-MB-435, 2.71 µM. The TGI is over 16.7 µM in the test on EKVX NSCLC; 5.71 µM with MDA-MB-231 breast; 5.25 µM in the test with COLO 205 colon; 4.21 µM in the test with UO-31 renal; over 16.7 µM in the test on SR leukemia; over 16.7 µM in the test on SNB-19 CNS. Moreover, the TGI was 4.64 µM in the test on LOX IMVI melanoma, 6.23 µM with KM12 colon, over 16.7 µM in the test with SF-268 CNS and 5.37 µM in the test with MDA-MB-435.
As to `CC(=O)OC1C(OC/C2=C/C3[C@@H](C(C)C)CC=C(C)[C@@H]3CC(OC(=O)/C=C/c3cn(C)cn3)[C@]3(C)C=C[C@@]2(O)O3)OCC(O)C1O` (some centres undefined), the GI50 in the test with EKVX NSCLC is 0.0707 µM; in the test on MDA-MB-231 breast it was 0.421 µM; in the test on COLO 205 colon, 0.0112 µM; with UO-31 renal, 1.13 µM; with SR leukemia, 0.0292 µM; in the test with SNB-19 CNS it was 0.0364 µM. Moreover, the GI50 was 0.0234 µM with LOX IMVI melanoma, 0.0123 µM with KM12 colon, 0.0336 µM in the test on SF-268 CNS and 0.00626 µM in the test with MDA-MB-435. The TGI is over 50 µM in the test on EKVX NSCLC; over 50 µM in the test on MDA-MB-231 breast; 0.0975 µM with COLO 205 colon; over 50 µM in the test with UO-31 renal; over 50 µM with SR leukemia; over 50 µM in the test on SNB-19 CNS. Further, the TGI with LOX IMVI melanoma is over 50 µM; in the test with SF-268 CNS, over 50 µM; in the test with MDA-MB-435, 0.0208 µM.
For `COc1ccc(N2CCN(CC(=O)N3CCN(c4nnc(-c5ccc(Cl)cc5)c(-c5ccc(Cl)cc5)n4)CC3)CC2)cc1`, the GI50 is over 100 µM in the test on EKVX NSCLC; 35.4 µM in the test on MDA-MB-231 breast; 6.6 µM in the test with COLO 205 colon; 2.8 µM in the test with UO-31 renal; 2.56 µM with SR leukemia; over 100 µM with SNB-19 CNS. Further, the GI50 in the test on LOX IMVI melanoma is 7.76 µM; with KM12 colon it was 4.86 µM; in the test on SF-268 CNS it was over 100 µM; in the test with MDA-MB-435, 9.06 µM. In addition, the TGI was over 100 µM with EKVX NSCLC; over 100 µM with MDA-MB-231 breast; over 100 µM in the test on COLO 205 colon; over 100 µM in the test with UO-31 renal; 8.65 µM with SR leukemia; over 100 µM in the test on SNB-19 CNS. For the same compound, the TGI with LOX IMVI melanoma, with KM12 colon, in the test with SF-268 CNS and with MDA-MB-435 was over 100 µM in each case.
For the compound `CN(C)CCCn1c2c(c3ccc([N+](=O)[O-])cc3c1=O)C(=O)c1ccccc1-2`, the GI50 in the test with EKVX NSCLC is 84.9 µM; with MDA-MB-231 breast it was 15.9 µM; in the test on COLO 205 colon, 23.9 µM; with UO-31 renal, 4.28 µM; with SR leukemia, 1.98 µM; in the test on SNB-19 CNS it was 19.1 µM. Besides, the GI50 was 2.87 µM in the test on LOX IMVI melanoma, 28.4 µM in the test on KM12 colon, 9.53 µM in the test on SF-268 CNS and over 100 µM in the test on MDA-MB-435. For the same compound, the TGI in the test on EKVX NSCLC was over 100 µM; in the test with MDA-MB-231 breast, 38.1 µM; with COLO 205 colon, 87.5 µM; with UO-31 renal, 47.8 µM; in the test on SR leukemia, over 100 µM; with SNB-19 CNS, over 100 µM. Besides, the TGI was 13.3 µM in the test with LOX IMVI melanoma, over 100 µM in the test on KM12 colon, over 100 µM in the test with SF-268 CNS and over 100 µM in the test with MDA-MB-435.
In the case of `Cc1nc2cc(NC(=O)CN3CCN(CCN4C(=O)c5cccc6cccc(c56)C4=O)CC3)ccc2s1`, the GI50 with EKVX NSCLC is 7.88 µM; with MDA-MB-231 breast it was 11.7 µM; in the test with COLO 205 colon it was 4.46 µM; in the test with UO-31 renal it was 3.07 µM; in the test with SR leukemia, 1.19 µM; in the test on SNB-19 CNS it was 6.23 µM. Moreover, the GI50 with LOX IMVI melanoma is 4.15 µM; with KM12 colon it was 4.95 µM; in the test with SF-268 CNS it was 5.01 µM; in the test on MDA-MB-435, 4.6 µM. Besides, the TGI in the test with EKVX NSCLC is over 100 µM; in the test on MDA-MB-231 breast, over 100 µM; in the test with COLO 205 colon, 89.6 µM; in the test on UO-31 renal, over 100 µM; with SR leukemia, over 100 µM; with SNB-19 CNS it was 21.4 µM. The TGI was 15.6 µM in the test with LOX IMVI melanoma, 18.4 µM with KM12 colon, 24.9 µM in the test with SF-268 CNS and 19.4 µM with MDA-MB-435.
Consider `O=C(/C=C/CN1CCCCC1)Nc1cc2c(Nc3ccc(F)c(Cl)c3F)ncnc2cc1OCCOC(F)F`, for which the GI50 in the test on EKVX NSCLC is 0.0646 µM; with MDA-MB-231 breast, 0.882 µM; in the test on COLO 205 colon, 1.6 µM; with UO-31 renal, under 0.0116 µM; in the test on SR leukemia, 0.598 µM; in the test with SNB-19 CNS, 1.94 µM. Moreover, the GI50 was 1.22 µM with LOX IMVI melanoma, 2.44 µM in the test on KM12 colon, 1.14 µM in the test on SF-268 CNS and 1.35 µM with MDA-MB-435. Moreover, the TGI was 5.22 µM in the test on EKVX NSCLC; 4.88 µM in the test with MDA-MB-231 breast; 4.93 µM with COLO 205 colon; 5.89 µM with UO-31 renal; 4.24 µM in the test on SR leukemia; 13.5 µM in the test with SNB-19 CNS. For the same compound, the TGI with LOX IMVI melanoma was found to be 2.59 µM; in the test on KM12 colon it was 9.01 µM; with SF-268 CNS, 4.59 µM; in the test with MDA-MB-435, 5.81 µM.
In the case of `CCCCc1ccc(C(N)=O)nc1`, the GI50 with EKVX NSCLC is 48.9 µM; with MDA-MB-231 breast, over 100 µM; in the test on COLO 205 colon, over 100 µM; in the test on UO-31 renal it was over 100 µM; in the test with SR leukemia, over 100 µM; in the test on SNB-19 CNS, over 100 µM. Besides, the GI50 in the test on LOX IMVI melanoma, with KM12 colon, in the test on SF-268 CNS and with MDA-MB-435 was over 100 µM each time. Further, the TGI in the test with EKVX NSCLC, in the test with MDA-MB-231 breast, with COLO 205 colon, in the test with UO-31 renal, in the test on SR leukemia and with SNB-19 CNS was over 100 µM each time. For the same compound, the TGI with LOX IMVI melanoma, in the test on KM12 colon, in the test on SF-268 CNS and in the test on MDA-MB-435 was over 100 µM in each case.
